These compounds were tested against T1, hGPR119 (Homo sapiens, UniProt Q8TDV5) (assay: In vitro cyclic AMP assay (Cisbio dynamic 2 HTRF kit) in CHO-hGPR119 cells). Conditions: 1 h, cAMP, compound at 1 μM, 60 min, read-out: Induction (% induction at 1 μM).
T1 construct: expressed in transfected cells; host or cells: CHO
T1 sequence (Q8TDV5 1-335): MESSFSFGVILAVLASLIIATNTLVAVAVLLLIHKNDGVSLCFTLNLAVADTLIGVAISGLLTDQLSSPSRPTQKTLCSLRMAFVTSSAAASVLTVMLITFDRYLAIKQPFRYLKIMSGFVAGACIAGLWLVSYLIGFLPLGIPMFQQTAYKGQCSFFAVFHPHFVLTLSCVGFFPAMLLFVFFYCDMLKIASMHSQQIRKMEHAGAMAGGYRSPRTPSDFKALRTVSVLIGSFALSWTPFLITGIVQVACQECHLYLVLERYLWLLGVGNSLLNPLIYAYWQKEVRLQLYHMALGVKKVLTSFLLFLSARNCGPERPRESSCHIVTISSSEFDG
Format: cell-based
Procedure: cAMP measurements were done using Cisbio dynamic 2 HTRF kit according to the manufacturer's protocol. Briefly, CHO-hGPR119 cells were plated at a cell density of 5000 cells/well/5 μl into a white small volume 384 well plate. The final concentrations of IBMX and DMSO used were 1 mM and 0.5% respectively. Cells were treated with various concentrations of the test compound for 60 min at room temperature. Cells were lysed by buffer containing Anti-cAMP antibody and d2-cAMP reagents and incubated for 1 hour at room temperature. HTRF was measured at 337 nm excitation and emission wavelengths of 665 nm and 620 nm on a microplate reader (Flurostar, BMG Labtech). Graphpad prism software was utilized for EC50 determinations.

Compound	activation at 1 µM
CC(C)c1noc(N2CCC([C@H](C)Oc3nc4ccc(-c5ccc(C(F)(F)F)nc5)nc4s3)CC2)n1 [Compound 1152, 2-(1-(1-(3-isopropyl-1,2,4-oxadiazol-5-yl)piperidin-4-yl)ethoxy)-5-(6-(trifluoromethyl)pyridin-3-yl)thiazolo[5,4-b]pyridine]	77%
CCc1ccc(N2CCC(C(C)Oc3nc4ccc(-c5ccc(S(C)(=O)=O)cc5)nc4s3)CC2)nc1 (centres unmarked) [Compound 1087, 2-(1-(1-(5-ethylpyridin-2-yl)piperidine-4-yl)ethoxy)-5-(4-(methylsulfonyl)phenyl)thiazolo[5,4-b]pyridine]	74%
COCc1cnc(N2CCC(C(C)Oc3nc4ccc(-c5ccc(S(C)(=O)=O)nc5)nc4s3)CC2)nc1 (centres unmarked) [Compound 1163, 2-(1-(1-(5-(methoxymethyl)pyrimidin-2-yl)piperidin-4-yl)ethoxy)-5-(6-(methylsulfonyl)pyridin-3-yl)thiazolo[5,4-b]pyridine]	63%
CC(Oc1nc2ccc(-c3ccc(S(C)(=O)=O)cc3)nc2s1)C1CCN(S(=O)(=O)C2CC2)CC1 (centres unmarked) [Compound 1109, 2-(1-(1-(cyclopropylsulfonyl)piperidin-4-yl)ethoxy)-5-(4-(methylsulfonyl)phenyl)thiazolo[5,4-b]pyridine]	0%
CCCc1cnc(N2CCC(C(C)Oc3nc4ccc(-c5ccncc5)nc4s3)CC2)nc1 (centres unmarked) [Compound 1150, 2-(1-(1-(5-propylpyrimidin-2-yl)piperidin-4-yl)ethoxy)-5-(pyridin-4-yl)thiazolo[5,4-b]pyridine]	67%
CC(C)c1noc(N2CCC(C(C)Oc3nc4ccc(-c5ccc(S(C)(=O)=O)cc5F)nc4s3)CC2)n1 (centres unmarked) [Compound 1111, 5-(4-(1-((5-(2-fluoro-4-(methylsulfonyl)phenyl)thiazolo[5,4-b]pyridin-2-yl)oxy)ethyl)piperidin-1-yl)-3-isopropyl-1,2,4-oxadiazole]	24%
CC(C)c1noc(N2CCC([C@H](C)Oc3nc4ccc(-c5ccc(S(C)(=O)=O)cc5)nc4s3)CC2)n1 [Compound 1031, (S)-3-isopropyl-5-(4-(1-((5-(4-(methylsulfonyl)phenyl)thiazolo[5,4-b]pyridin-2-yl)oxy)ethyl)piperidin-1-yl)-1,2,4-oxadiazole]	76%
CC(C)c1noc(N2CC[C@@H](COc3nc4ccc(-c5ccc(S(C)(=O)=O)cc5)nc4s3)[C@@H](F)C2)n1 [Compound 1128, 5-((3R,4S)-3-fluoro-4-(((5-(4-(methylsulfonyl)phenyl)thiazolo[5,4-b]pyridin-2-yl)oxy)methyl)piperidin-1-yl)-3-isopropyl-1,2,4-oxadiazole]	10%
CS(=O)(=O)c1ccc(-c2ccc3nc(C4=CCN(CCO)CC4)sc3n2)cc1 [Compound 1015, 2-(4-(5-(4-(methylsulfonyl)phenyl)thiazolo[5,4-b]pyridin-2-yl)-5,6-dihydropyridin-1(2H)-yl)ethanol]	2%
COCCS(=O)(=O)c1ccc(-c2ccc3nc(OC(C)C4CCN(c5nc(C(C)C)no5)CC4)sc3n2)cc1 (centres unmarked) [Compound 1067, 3-isopropyl-5-(4-(1-((5-(4-((2-methoxyethyl)sulfonyl)phenyl)thiazolo[5,4-b]pyridin-2-yl)oxy)ethyl)piperidin-1-yl)-1,2,4-oxadiazole]	36%
CC(C)c1noc(N2CCC(C(C)Oc3nc4ccc(-c5ccc(S(C)(=O)=O)c(F)c5)nc4s3)CC2)n1 (centres unmarked) [Compound 1100, 5-(4-(1-((5-(3-fluoro-4-(methylsulfonyl)phenyl)thiazolo[5,4-b]pyridin-2-yl)oxy)ethyl)piperidin-1-yl)-3-isopropyl-1,2,4-oxadiazole]	65%

Same assay, conditions: cAMP

Compound	EC50
CC(C)c1noc(N2CCC([C@H](C)Oc3nc4ccc(-c5ccc(C(F)(F)F)nc5)nc4s3)CC2)n1 [Compound 1152, 2-(1-(1-(3-isopropyl-1,2,4-oxadiazol-5-yl)piperidin-4-yl)ethoxy)-5-(6-(trifluoromethyl)pyridin-3-yl)thiazolo[5,4-b]pyridine]	0.05 to 0.1 µM
CC(C)c1noc(N2CCC([C@H](C)Oc3nc4ccc(-c5ccc(S(C)(=O)=O)cc5)nc4s3)CC2)n1 [Compound 1031, (S)-3-isopropyl-5-(4-(1-((5-(4-(methylsulfonyl)phenyl)thiazolo[5,4-b]pyridin-2-yl)oxy)ethyl)piperidin-1-yl)-1,2,4-oxadiazole]	0.05 to 0.1 µM

Same assay, conditions: cAMP, compound at 1 μM, 60 min

Compound	Induction (% induction at 1 μM)
CC(C)c1noc(N2CCC([C@H](C)Oc3nc4ccc(-c5ccncc5F)nc4s3)CC2)n1 [Compound 1076, (S)-5-(4-(1-((5-(3-fluoropyridin-4-yl)thiazolo[5,4-b]pyridin-2-yl)oxy)ethyl)piperidin-1-yl)-3-isopropyl-1,2,4-oxadiazole]	35%

Reference: patent US10526345B2, “Compounds as GPR119 agonists” (Mankind Pharma Ltd., priority 2016, dated 2020)
